Data from patent US6399745B1, “Use of leptin antagonists for treating insulin resistance in type II diabetes” (Aventis Pharma Deutschland GmbH, priority 1996, dated 2002).

Assays:
isolated rat adipocytes [1] = assay: Glucose transport (2-deoxyglucose uptake) in isolated rat adipocytes after primary culture with leptin, basal and insulin-stimulated; type: cell-based; settings: for Glucose Transport, stimulation factor for insulin (stimulated/basal): Insulin concentration: 5 nM
Protocol: (§1) Adipocytes were prepared from the epididymal fat tissue of male Wistar rats (140-160 g, Hoechst AG breeding station, Kastengrund) by means of digesting with collagenase (Rodbell, 1964, J. Biol. Chem. 239, 375-380), washed twice with KRH (25 mM Hepes free acid, 25 mM Hepes sodium salt, 80 mM NaCl, 1 mM MgSO4, 2 mM CaCl2, 6 mM KCl, 1 mM sodium pyruvate, 0.5% BSA) and once with DMEM (Dulbecco's minimal essential medium), supplemented with 5.5 mM glucose, 20 mM Hepes (pH 7.4), 2% fetal calf serum, 1% BSA, 50 U of penicillin/ml, […], by means of flotation (800×g, 1 min, in small plastic tubes), and finally diluted to a volume of 20 ml of DMEM/g wet weight of the fat tissue (cell titer: approximately 2.5×10^5 cells/ml).
The adipocytes were incubated, at 37° C. for 15-18 h under an atmosphere of 5% CO2 and with gentle shaking, in supplemented (see above) DMEM in the presence of 100 nM phenylisopropyladenosine (4 ml of DMEM to 1 ml of cells, cell titer approximately 5×10^4 cell/ml, in 50 ml sterile polypropylene: tubes) and in the presence or absence of leptin. The adipocytes were subsequently washed three times with cold KRH and adjusted to a cell titer of approximately 3×10^5 cells/ml by adding 0.7 ml of glucose-free KRH to the cell layer which remained after the complete removal of the last washing solution. In order to determine the capacity of the adipocytes to be stimulated by insulin, and their sensitivity to insulin, following the primary culture, the washed adipocytes were incubated at 37° C. for 20 min in the absence or presence of human insulin (0.02-50 nM final concentration), and glucose transport or lipogenesis was then measured.
Glucose transport was measured as the specific uptake of the non-metabolizable glucose analog 2-deoxyglucose (Muller and Wied, 1993, Diabetes 42, 1852-1867). 50 μl of the adipocyte suspension in KRH, which suspension had or had not been preincubated with insulin (see above), were incubated, at 25° C. for 5 min, with 50 μl of KRH which was supplemented with 2-deoxy-D-[2,6-^3H]glucose (0.5 μCi, 0.2 mM). The incubation mixtures were transferred to thin soft-plastic centrifuge tubes, each of which already contained 200 μl of dinonyl phthalate oil, and immediately centrifuged (2,000×g, 30 sec). Using special shears, the tubes were severed within the oil layer (in the vicinity of the upper edge) and the upper halves of the tubes, together with the cell layers which had in each case been floated onto the oil layer, were transferred to scintillation vials. After 10 ml of scintillation fluid (water-based) had been added, the radioactivity associated with the cells was measured. In order to correct for 2-deoxyglucose which had become enclosed in the cell interstices, or had diffused into the cells, in a non-specific manner, the radioactivity of cells which had been preincubated with cytochalasin B (20 μM) was subtracted from the total cell-associated radioactivity of each individual incubation mixture (Gliemann et al., 1972, Biochim. Biophys. Acta 286, 1-9).
Isolated rat adipocytes were incubated for 15 h in primary culture in the presence or absence of increasing concentrations of leptin. […] The stimulation factor for insulin was calculated as the ratio between insulin-stimulated and basal activities. Each value represents the mean from two independent adipocyte cultures with activity being determined two or three times in each case.
The cells were then washed and tested for the stimulation of glucose transport by differing concentrations of insulin. Glucose transport activity is given as a “dpm value” of the 2deoxy-[^3H]glucose which is specifically associated with the cells. Each value represents the mean from two independent adipocyte cultures with the activity being determined four times in each case.

isolated rat adipocytes [2] = assay: Antagonism of fragment 116-167 to the leptin effect: insulin-stimulated glucose transport; type: cell-based; settings: Leptin: 10 nM 17.5 h, no fragment; Insulin: 5 nM
Protocol: as §1, with “cells/ml). […]” for “cells/ml).”
Glucose transport was measured as the specific uptake of the non-metabolizable glucose analog 2-deoxyglucose (Muller and Wied, 1993, Diabetes 42, 1852-1867). […] After 10 ml of scintillation fluid (water-based) had been added, the radioactivity associated with the cells was measured. […]
Isolated rat adipocytes were incubated for 17.5 h in primary culture in the presence or absence of leptin (10 nM) and increasing concentrations of leptin fragment 116-167. […] The stimulation factor for insulin was calculated as the ratio between the insulin-stimulated activity and the basal activity. […]

isolated rat adipocytes [3] = assay: Insulin stimulation of glycogenesis in isolated rat adipocytes under leptin; type: cell-based; settings: basal values unaffected
ob/ob mice = settings: injection; cited from earlier work
[4] = system: insulin receptor and insulin receptor substrate 1 (IRS-1); settings: rat 1 fibroblasts overexpressing human insulin receptor; cited from earlier work
C2C12 mouse myotubes = settings: cited from earlier work

Leptin
glucose transport, uptake of 3H-labeled 2-deoxyglucose (isolated rat adipocytes [1]; leptin 5 nM 16.5 h, insulin 50 nM): 4031 dpm
glucose transport, uptake of 3H-labeled 2-deoxyglucose (isolated rat adipocytes [1]; leptin 5 nM 16.5 h, no insulin (basal)): 712 dpm
Glucose Transport, stimulation factor for insulin (stimulated/basal) (isolated rat adipocytes [1]; leptin 10 nM 15 h): 3.5
glucose transport, uptake of 3H-labeled 2-deoxyglucose (isolated rat adipocytes [1]; leptin 10 nM 16.5 h, insulin 0.02 nM): 773 dpm
glucose transport, uptake of 3H-labeled 2-deoxyglucose (isolated rat adipocytes [1]; leptin 10 nM 16.5 h, insulin 0.05 nM): 802 dpm
glucose transport, uptake of 3H-labeled 2-deoxyglucose (isolated rat adipocytes [1]; leptin 10 nM 16.5 h, insulin 0.1 nM): 856 dpm
glucose transport, uptake of 3H-labeled 2-deoxyglucose (isolated rat adipocytes [1]; leptin 10 nM 16.5 h, insulin 0.2 nM): 941 dpm
glucose transport, uptake of 3H-labeled 2-deoxyglucose (isolated rat adipocytes [1]; leptin 10 nM 16.5 h, insulin 0.5 nM): 1209 dpm
glucose transport, uptake of 3H-labeled 2-deoxyglucose (isolated rat adipocytes [1]; leptin 10 nM 16.5 h, insulin 1 nM): 1573 dpm
glucose transport, uptake of 3H-labeled 2-deoxyglucose (isolated rat adipocytes [1]; leptin 10 nM 16.5 h, insulin 2 nM): 2061 dpm
glucose transport, uptake of 3H-labeled 2-deoxyglucose (isolated rat adipocytes [1]; leptin 10 nM 16.5 h, insulin 5 nM): 2476 dpm
glucose transport, uptake of 3H-labeled 2-deoxyglucose (isolated rat adipocytes [1]; leptin 10 nM 16.5 h, insulin 10 nM): 2710 dpm
glucose transport, uptake of 3H-labeled 2-deoxyglucose (isolated rat adipocytes [1]; leptin 10 nM 16.5 h, insulin 50 nM): 2967 dpm
glucose transport, uptake of 3H-labeled 2-deoxyglucose (isolated rat adipocytes [1]; leptin 10 nM 16.5 h, no insulin (basal)): 755 dpm
Glucose Transport, stimulation factor for insulin (stimulated/basal) (isolated rat adipocytes [1]; leptin 30 nM 15 h): 2.35
glucose transport, uptake of 3H-labeled 2-deoxyglucose (isolated rat adipocytes [1]; leptin 30 nM 16.5 h, insulin 0.02 nM): 704 dpm
glucose transport, uptake of 3H-labeled 2-deoxyglucose (isolated rat adipocytes [1]; leptin 30 nM 16.5 h, insulin 0.05 nM): 745 dpm
glucose transport, uptake of 3H-labeled 2-deoxyglucose (isolated rat adipocytes [1]; leptin 30 nM 16.5 h, insulin 0.1 nM): 789 dpm
glucose transport, uptake of 3H-labeled 2-deoxyglucose (isolated rat adipocytes [1]; leptin 30 nM 16.5 h, insulin 0.2 nM): 852 dpm
glucose transport, uptake of 3H-labeled 2-deoxyglucose (isolated rat adipocytes [1]; leptin 30 nM 16.5 h, insulin 0.5 nM): 943 dpm
glucose transport, uptake of 3H-labeled 2-deoxyglucose (isolated rat adipocytes [1]; leptin 30 nM 16.5 h, insulin 1 nM): 1183 dpm
glucose transport, uptake of 3H-labeled 2-deoxyglucose (isolated rat adipocytes [1]; leptin 30 nM 16.5 h, insulin 2 nM): 1374 dpm
glucose transport, uptake of 3H-labeled 2-deoxyglucose (isolated rat adipocytes [1]; leptin 30 nM 16.5 h, insulin 5 nM): 1782 dpm
glucose transport, uptake of 3H-labeled 2-deoxyglucose (isolated rat adipocytes [1]; leptin 30 nM 16.5 h, insulin 10 nM): 1972 dpm
glucose transport, uptake of 3H-labeled 2-deoxyglucose (isolated rat adipocytes [1]; leptin 30 nM 16.5 h, insulin 50 nM): 2114 dpm
glucose transport, uptake of 3H-labeled 2-deoxyglucose (isolated rat adipocytes [1]; leptin 30 nM 16.5 h, no insulin (basal)): 688 dpm
Glucose Transport, stimulation factor for insulin (stimulated/basal) (isolated rat adipocytes [1]; leptin 100 nM 15 h): 1.5
glucose transport, uptake of 3H-labeled 2-deoxyglucose (isolated rat adipocytes [1]; leptin 100 nM 16.5 h, insulin 0.02 nM): 766 dpm
glucose transport, uptake of 3H-labeled 2-deoxyglucose (isolated rat adipocytes [1]; leptin 100 nM 16.5 h, insulin 0.05 nM): 780 dpm
glucose transport, uptake of 3H-labeled 2-deoxyglucose (isolated rat adipocytes [1]; leptin 100 nM 16.5 h, insulin 0.1 nM): 803 dpm
glucose transport, uptake of 3H-labeled 2-deoxyglucose (isolated rat adipocytes [1]; leptin 100 nM 16.5 h, insulin 0.2 nM): 813 dpm
glucose transport, uptake of 3H-labeled 2-deoxyglucose (isolated rat adipocytes [1]; leptin 100 nM 16.5 h, insulin 0.5 nM): 883 dpm
glucose transport, uptake of 3H-labeled 2-deoxyglucose (isolated rat adipocytes [1]; leptin 100 nM 16.5 h, insulin 1 nM): 896 dpm
glucose transport, uptake of 3H-labeled 2-deoxyglucose (isolated rat adipocytes [1]; leptin 100 nM 16.5 h, insulin 2 nM): 1034 dpm
glucose transport, uptake of 3H-labeled 2-deoxyglucose (isolated rat adipocytes [1]; leptin 100 nM 16.5 h, insulin 5 nM): 1205 dpm
glucose transport, uptake of 3H-labeled 2-deoxyglucose (isolated rat adipocytes [1]; leptin 100 nM 16.5 h, insulin 10 nM): 1451 dpm
glucose transport, uptake of 3H-labeled 2-deoxyglucose (isolated rat adipocytes [1]; leptin 100 nM 16.5 h, insulin 50 nM): 1723 dpm
glucose transport, uptake of 3H-labeled 2-deoxyglucose (isolated rat adipocytes [1]; leptin 100 nM 16.5 h, no insulin (basal)): 747 dpm
insulin sensitivity of stimulation of glucose transport (isolated rat adipocytes [1]; leptin, basal values unaffected): drastically reduced
Glucose Transport, stimulation factor for insulin (stimulated/basal) (isolated rat adipocytes [2]): 3.55
insulin sensitivity of stimulation of glycogenesis (isolated rat adipocytes [3]): drastically reduced
nutrient intake (ob/ob mice): reduction in nutrient intake
weight (ob/ob mice): decrease in weight
insulin-induced phosphorylation of the insulin receptor and of IRS-1 [4]: decreases
glucose transport (C2C12 mouse myotubes): stimulated
glycogen synthesis (C2C12 mouse myotubes): stimulated
